This note sets out measurements from ChEMBL document CHEMBL1146818, “Yeast and mammalian alpha-glucosidase inhibitory constituents from Himalayan rhubarb Rheum emodi Wall.ex Meisson” (Bioorg Med Chem Lett, 2004).

Active and inactive are the calls of the source. No cut-off for these calls is given here.

Test [1] is described as follows: Inhibitory activity against yeast alpha-glucosidase; mild activity observed. As to conditions: Saccharomyces cerevisiae.
Test [2] has as its target Sucrase-isomaltase, intestinal (Rattus norvegicus) (UniProt P23739). Put plainly: Inhibitory activity against rat alpha-glucosidase; mild activity observed.
Test [3] can be described thus: Inhibitory activity against yeast alpha-glucosidase; active. The following applies: Saccharomyces cerevisiae.
Test [4] has as its target Sucrase-isomaltase, intestinal (Rattus norvegicus) (UniProt P23739). Put plainly: Inhibitory activity against rat alpha-glucosidase; moderate activity observed.

Sucrase-isomaltase, intestinal (Rattus norvegicus), sequence (P23739 1-1013 limits assumed): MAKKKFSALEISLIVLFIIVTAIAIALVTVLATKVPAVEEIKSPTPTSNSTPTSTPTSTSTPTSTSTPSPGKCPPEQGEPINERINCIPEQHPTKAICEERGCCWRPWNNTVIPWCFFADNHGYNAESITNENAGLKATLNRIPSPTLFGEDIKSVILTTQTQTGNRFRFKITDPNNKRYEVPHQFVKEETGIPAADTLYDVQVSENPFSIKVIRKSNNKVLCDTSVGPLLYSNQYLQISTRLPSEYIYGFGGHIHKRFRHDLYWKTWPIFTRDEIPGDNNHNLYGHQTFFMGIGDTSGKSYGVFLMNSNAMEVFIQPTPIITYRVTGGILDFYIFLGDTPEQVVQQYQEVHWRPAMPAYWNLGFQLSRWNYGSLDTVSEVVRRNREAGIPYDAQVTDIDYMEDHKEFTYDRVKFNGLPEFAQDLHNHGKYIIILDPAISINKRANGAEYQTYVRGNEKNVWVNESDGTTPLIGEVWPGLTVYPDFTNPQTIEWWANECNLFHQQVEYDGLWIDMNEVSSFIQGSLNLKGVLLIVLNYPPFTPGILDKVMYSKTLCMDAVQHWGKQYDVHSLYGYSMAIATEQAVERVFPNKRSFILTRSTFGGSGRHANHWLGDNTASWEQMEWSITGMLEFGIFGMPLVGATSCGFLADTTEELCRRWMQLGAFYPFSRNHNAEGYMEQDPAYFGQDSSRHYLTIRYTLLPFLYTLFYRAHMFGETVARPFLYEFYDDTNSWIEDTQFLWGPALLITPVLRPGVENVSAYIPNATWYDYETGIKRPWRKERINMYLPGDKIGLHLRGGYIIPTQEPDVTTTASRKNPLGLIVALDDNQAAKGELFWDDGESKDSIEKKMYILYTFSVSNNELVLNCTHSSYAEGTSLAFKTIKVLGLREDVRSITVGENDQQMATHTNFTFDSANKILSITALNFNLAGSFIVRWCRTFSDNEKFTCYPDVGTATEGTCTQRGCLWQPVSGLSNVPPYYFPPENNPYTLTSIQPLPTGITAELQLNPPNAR
Sucrase-isomaltase, intestinal (Rattus norvegicus), sequence (P23739 1014-1841 limits assumed): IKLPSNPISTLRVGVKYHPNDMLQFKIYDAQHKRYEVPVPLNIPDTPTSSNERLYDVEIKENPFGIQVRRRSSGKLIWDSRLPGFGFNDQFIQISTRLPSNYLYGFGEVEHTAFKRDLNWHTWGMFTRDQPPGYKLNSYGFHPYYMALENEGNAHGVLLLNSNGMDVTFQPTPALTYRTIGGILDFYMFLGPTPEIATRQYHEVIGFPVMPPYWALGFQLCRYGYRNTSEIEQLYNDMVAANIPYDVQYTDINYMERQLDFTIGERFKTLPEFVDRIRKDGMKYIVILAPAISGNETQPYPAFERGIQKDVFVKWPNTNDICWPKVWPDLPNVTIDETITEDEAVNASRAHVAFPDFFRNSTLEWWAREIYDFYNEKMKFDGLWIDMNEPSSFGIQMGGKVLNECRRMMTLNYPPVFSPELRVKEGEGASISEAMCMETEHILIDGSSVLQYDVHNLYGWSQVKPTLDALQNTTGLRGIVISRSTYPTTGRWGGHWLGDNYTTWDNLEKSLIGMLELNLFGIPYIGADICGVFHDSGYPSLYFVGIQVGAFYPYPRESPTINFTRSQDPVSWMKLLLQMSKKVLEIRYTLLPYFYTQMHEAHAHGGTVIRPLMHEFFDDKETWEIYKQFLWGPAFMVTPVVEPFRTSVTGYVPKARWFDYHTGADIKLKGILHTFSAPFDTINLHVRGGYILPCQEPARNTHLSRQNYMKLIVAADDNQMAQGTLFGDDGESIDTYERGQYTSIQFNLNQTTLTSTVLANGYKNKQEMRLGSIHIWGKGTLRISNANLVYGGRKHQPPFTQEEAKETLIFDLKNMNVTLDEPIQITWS

As for `COc1cc(O)c2c(c1)C(=O)c1cc(C)cc(O)c1C2=O`, the inhibition entry in test [1] and in test [2] was “Weak activity” throughout.
As for `COc1cc(O[C@@H]2C[C@H](CO)[C@@H](O)[C@H](O)[C@H]2O)c2c(O)c(C(C)=O)c(C)cc2c1`, in test [3], the inhibition entry was “Active”. For the same compound, the inhibition result in test [4] is “moderate activity observed”.
For the compound `Cc1cc(=O)c2c(O)cc(O)cc2o1`, the inhibition entry in test [1] and in test [2] was “Weak activity” throughout.
For `COc1ccc(/C=C/c2cc(O)cc(O[C@@H]3C[C@H](CO)[C@@H](O)[C@H](O)[C@H]3O)c2)cc1`, the inhibition result in test [2] is “Weak activity”.
In the case of `Cc1cc(O)c2c(c1)C(=O)c1cccc(O[C@@H]3C[C@H](CO)[C@@H](O)[C@H](O)[C@H]3O)c1C2=O`, in test [3], the inhibition entry is “Active”. Moreover, the inhibition entry in test [4] is on record as “moderate activity observed”.
Take `COc1ccc(/C=C/c2cc(O)cc(O)c2)cc1O`: the inhibition entry in test [3] was “Active”.
